Values after ≈ are worked out from the molar mass of the structure shown. Values joined by “and” are separate entries in the source; they are usually repeats but may differ in a detail not shown here. Equal values may be shown once. Read-outs that look alike come from different tables or passages of the source.
Columns and labels:
[1] = system: Acanthamoeba castellanii Neff; assay: anti-Acanthamoeba activity, alamarBlue method; type: cell-based; settings: for anti-Acanthamoeba activity (in words): Acanthamoeba castellanii Neff; for IC50: Acanthamoeba castellanii, ATCC30010, 96 h, read-out: IC50 against Acanthamoeba castellanii Neff
Method: The amoeba strain used in this study was the type strain: Acanthamoeba castellanii Neff (ATCC 30010) which was axenically grown in PYG medium (0.75% (w/v) proteose peptone, 0.75% (w/v) yeast extract and 1.5% (w/v) glucose) containing 40 μg/mL of gentamicin (Biochrom AG, Cultek, Granollers, Barcelona, Spain).
To evaluate the biological activity of the fractions and molecules, the anti-Acanthamoeba assays were determined using the alamarBlue® method as previously described. Firstly, Acanthamoeba strain was seeded in triplicate on a 96-well microtiter plates with 50 μL from a stock solution of 10^4 cells/mL. Amoebae were left to adhere to the bottom of the well for 15 min, which was checked using a Leika DMIL inverted microscope (Leika, Wetzlar, Germany). After that, 50 μL of serial dilutions of the molecules were added to the wells (1% DMSO was used to dissolve the highest dose of the compounds with no effects on the parasites). […] Finally, the alamarBlue Reagent® (Life Technologies, Madrid, Spain) was placed into each well at an amount equal to 10% of the final volume. Then, plates containing alamarBlue® were incubated for 96 h at 26 °C with a slight agitation.
(§1) Briefly, the test plates were analyzed, during an interval of time between 24 and 96 h, on an EnSpire® Multimode Plate Reader (Perkin Elmer, Madrid, Spain) using fluorescence, a test wavelength of 570 nm and a reference wavelength of 630 nm. The percentage of the growth inhibition, 50% inhibitory concentration (IC50 or CC50) was calculated by linear regression analysis with 95% confidence limits using Sigma Plot 12.0 statistical analysis software (Systat Software). All experiments were performed three times, and the mean values were also calculated. A paired two-tailed t-test was used for analysis of the data. Values of p < 0.05 were considered significant.

[2] = cytotoxicity test, alamarBlue method; type: cell-based; settings: mouse, 37 °C, read-out: CC50 against murine macrophage J774.A1
Method: The murine macrophages J774A.1 (ATCC# TIB-67) cell line was cultured in RPMI 1640 medium supplemented with 10% fetal bovine serum at 37 °C and 5% CO2 atmosphere, was used for the cytotoxicity assays.
The cytotoxicity assay was carried out using the alamarBlue® method as previously described. Firstly, the macrophages were seeded in triplicate on a 96-well microtiter plates with 50 μL from a stock solution of 2 × 10^5 cells/mL. Macrophages were left to adhere to the bottom of the well for 15 min, which was checked using a Leika DMIL inverted microscope (Leika, Wetzlar, Germany). After that, 50 μL of serial dilutions of the molecules were added to the wells. Finally, the alamarBlue Reagent® (Life Technologies, Madrid, Spain) was placed into each well at an amount equal to 10% of the final volume. Then, plates containing alamarBlue® were incubated for 24 h at 37 °C in presence of CO2 at 5%.
as §1

[3] = Neff strain (ATCC 30010), alamarBlue, 96 h at 26 °C
[4] = J774A.1 macrophages (ATCC TIB-67)

IC50 [1, 3]	IC50 against Acanthamoeba castellanii Neff [1, 3] [µg/mL]	SMILES	anti-Acanthamoeba activity (in words) [1]	CC50 at 24 h [2, 4] [µg/mL]	IC50 [1]	CC50 at 24 h [2] [µg/mL]
> 100 µg/mL		Cc1cc(O)c(C2(C)CCC3CC32C)cc1Br (centres unmarked) [compound 1, laurinterol]	inactive	23.6 ± 2.3 (≈ 80.1 µM)		
> 100 µg/mL		C=C1[C@@H](C)CC[C@@]1(C)c1cc(Br)c(C)cc1O [compound 2, isolaurinterol]	inactive	7.25 ± 0.7 (≈ 24.6 µM)		
0.33 µg/mL and 940 nM		C[C@@H](c1ncncc1F)[C@](O)(Cn1cncn1)c1ccc(F)cc1F [Voriconazole, voriconazole, reference compound]		2.64 ± 0.27 (≈ 7.56 µM)		
24.6 µg/mL and 65.6 µM		Cc1c(Br)cc2c(c1Br)O[C@@]1(C)[C@@H](C)CC[C@@]21C [compound 6, 8-Bromoaplysin]		32.9 ± 3.12 (≈ 87.9 µM)		
> 100 µg/mL		Cc1cc2c(cc1Br)[C@]1(C)CC[C@H](C)[C@]1(C)O2 [compound 3, aplysin]		324 ± 12 (≈ 1100 µM)		
90.7 µg/mL and 322 µM	90.674 ± 1.529 (≈ 322 µM)	Cc1ccc([C@]2(C)CC[C@@H](Br)C2(C)C)cc1 [compound 4, α-bromocuparane]		33 ± 4.2 (≈ 117 µM)		
18.8 µg/mL and 41.5 µM		Cc1c(Br)cc2c(c1Br)O[C@@]1(C)C[C@@H](Br)CC[C@@]21C [compound 7, 3α-Bromojohnstane]		62.3 ± 2.59 (≈ 138 µM)		
29.9 µg/mL and 76.7 µM		Cc1c(Br)cc2c(c1Br)O[C@@]1(CO)[C@@H](C)CC[C@@]21C [compound 9, 8,10-Dibromoaplysinol]		74.9 ± 2.77 (≈ 192 µM)		
64.2 µg/mL and 228 µM	64.251 ± 3.492 (≈ 228 µM)	Cc1ccc([C@]2(C)CC[C@H](Br)C2(C)C)cc1 [compound 5, α-isobromocuparane]		85.3 ± 10.9 (≈ 303 µM)		
1.53 µg/mL and 3.02 µM		[H]/N=C(\N/C(=N/[H])NCCCCCCNC(=N)NC(=N)Nc1ccc(Cl)cc1)Nc1ccc(Cl)cc1 [Chlorhexidine, chlorhexidine, reference compound]		6.64 ± 0.35 (≈ 13.1 µM)		
		Cc1c(Br)cc2c(c1Br)O[C@@]1(CBr)[C@@H](C)CC[C@@]21C [compound 8, 8,10-Dibromoisoaplysin]			22.8 µg/mL and 50.4 µM	70.4 ± 3.25 (≈ 155 µM)

From PMC6266398, “Anti-Acanthamoeba Activity of Brominated Sesquiterpenes from Laurencia johnstonii” (Marine Drugs, 2018)
